Series [1] concerns Amaranthus retroflexus. The experiment in a line: Herbicidal activity, soil surface spray, metalaxyl-treated stem cutting (Example 12). The class given is in vivo. Conditions: 3 cm stem cutting treated with metalaxyl or metalaxyl-M, four weeks after treatment. The procedure: A soil is packed into a plastic pot. Seeds of Amaranthus retroflexus are seeded thereon.
In series [2] the test system is sugar cane. The experiment in a line: Phytotoxicity on sugar cane, spray above weed before planting, strobilurin-treated stem cutting (Example 9). The protocol: (§1) The “phytotoxicity” evaluated herein is the damage characteristic determined to be due to a treated compound, and is clearly discriminated from the damage characteristic caused by a harmful animal or plant disease.
(§2) A soil is packed into a plastic pot, and seeds of Amaranthus retroflexus are seeded thereon. Thereafter, the pot is placed in a greenhouse, and the weed is grown.
(§3) A 30 cm to 40 cm stem cutting of sugar cane is placed on a wet soil, and germination is stimulated. The stem cutting from which a bud has grown to about 1 cm is selected, and the length of the stem cutting is adjusted to be 3 cm so that the stem cutting has one node. Kresoxim-methyl, azoxystrobin, trifloxystrobin, fluoxastrobin, picoxystrobin, pyraclostrobin, dimoxystrobin, pyribencarb, metominostrobin, orysastrobin, enestrobin, pyraoxystrobin or pyrametostrobin is adhered to the stem cutting.
(§4) The pot for a test is placed in a greenhouse.

The subject of series [3] is sugar cane. Briefly: Phytotoxicity on sugar cane, spray above weed one week before planting (Example 5). The protocol:
as §1, §2
A 30 cm to 40 cm stem cutting of sugar cane is placed on a wet soil, and germination is stimulated. The stem cutting from which a bud has been grown to about 1 cm is selected, and the length of the stem cutting is adjusted to be 3 cm so that the stem cutting has one node.
as §4

Series [4] relates to Amaranthus retroflexus. The experiment in a line: Herbicidal activity, spray above weed before planting, metalaxyl-treated stem cutting (Example 13). The class given is in vivo. Conditions: sprayed above weed, 3 cm stem cutting treated with metalaxyl or metalaxyl-M planted one week after treatment, four weeks after treatment.
The test system of series [5] is Amaranthus retroflexus. Briefly: Herbicidal activity, soil surface spray, azole-fungicide-treated stem cutting (Example 10). Conditions: 3 cm stem cutting treated with azaconazole, bitertanol or another listed azole-type fungicide, four weeks after treatment. The class given is in vivo.
For series [6], the system named is Amaranthus retroflexus. Briefly: Herbicidal activity, soil surface spray, strobilurin-treated stem cutting (Example 8). Format: in vivo. Conditions: 3 cm stem cutting treated with kresoxim-methyl, azoxystrobin or another listed strobilurin fungicide, four weeks after treatment.
Excerpt: A 30 cm to 40 cm stem cutting of sugar cane is placed on a wet soil, and germination is stimulated. The stem cutting from which a bud has grown to about 1 cm is selected, and the length of the stem cutting is adjusted to be 3 cm so that the stem cutting has one node. Kresoxim-methyl, azoxystrobin, trifloxystrobin, fluoxastrobin, picoxystrobin, pyraclostrobin, dimoxystrobin, pyribencarb, metominostrobin, orysastrobin, enestrobin, pyraoxystrobin or pyrametostrobin is adhered to the stem cutting. A soil is packed into a plastic pot, and seeds of Amaranthus retroflexus are seeded thereon. The stem cutting of sugar cane treated with kresoxim-methyl, azoxystrobin, trifloxystrobin, fluoxastrobin, picoxystrobin, pyraclostrobin, dimoxystrobin, pyribencarb, metominostrobin, orysastrobin, enestrobin, pyraoxystrobin or pyrametostrobin is planted in the soil packed into the pot at a depth of 2 cm. […] Thereafter, the pot for a test is placed in a greenhouse.
The subject of series [7] is sugar cane. The experiment in a line: Phytotoxicity on sugar cane, soil surface spray, strobilurin-treated stem cutting (Example 8).
Excerpt: as §1
as §3, with “cutting. A soil is packed into a plastic pot, and seeds of Amaranthus retroflexus are seeded thereon. The stem cutting of sugar cane treated with kresoxim-methyl, azoxystrobin, trifloxystrobin, fluoxastrobin, picoxystrobin, pyraclostrobin, dimoxystrobin, pyribencarb, metominostrobin, orysastrobin, enestrobin, pyraoxystrobin or pyrametostrobin is planted in the soil packed into the pot at a depth of 2 cm. […] Thereafter, the pot for a test is placed in a greenhouse.” for “cutting.”

Series [8] has as its system sugar cane. The experiment in a line: Phytotoxicity on sugar cane, soil surface spray, azole-fungicide-treated stem cutting (Example 10).
Excerpt: as §1
A 30 to 40 cm stem cutting of sugar cane is placed on a wet soil, and germination is stimulated. The stem cutting from which a bud has grown to about 1 cm is selected, and the length of the stem cutting is adjusted to be 3 cm so that the stem cutting has one node. Azaconazole, bitertanol, bromoconazole, cyproconazole, difenoconazole, diniconazole, epoxyconazole, fenbuconazole, fluquinconazole, flusilazole, flutriafol, hexaconazole, imibenconazole, ipconazole, metconazole, myclobutanil, penconazole, propiconazole, prothioconazole, simeconazole, tebuconazole, tetraconazole, triadimenol, triticonazole, fenarimol, nuarimol, pyrifenox, imazalil, oxpoconazole fumarate, pefurazoate, procloraz or triflumizole is adhered to the stem cutting. A soil is packed into a plastic pot, and seeds of Amaranthus retroflexus are seeded thereon. The stem cutting of sugar cane treated with azaconazole, bitertanol, bromoconazole, cyproconazole, difenoconazole, diniconazole, epoxyconazole, fenbuconazole, fluquinconazole, flusilazole, flutriafol, hexaconazole, imibenconazole, ipconazole, metconazole, myclobutanil, penconazole, propiconazole, prothioconazole, simeconazole, tebuconazole, tetraconazole, triadimenol, triticonazole, fenarimol, nuarimol, pyrifenox, imazalil, oxpoconazole fumarate, pefurazoate, procloraz or triflumizole is planted in the soil packed into the pot at a depth of 2 cm. […] Thereafter, the pot for a test is placed in a greenhouse.

The test system of series [9] is sugar cane. The experiment in a line: Phytotoxicity on sugar cane, soil surface spray, metalaxyl-treated stem cutting (Example 12).
Excerpt: as §1
A 30 cm to 40 cm stem cutting of sugar cane is placed on a wet soil, and germination is stimulated. The stem cutting from which a bud has grown to about 1 cm is selected, and the length of the stem cutting is adjusted to be 3 cm so that the stem cutting has one node. Metalaxyl or metalaxyl-M is adhered to the stem cutting. A soil is packed into a plastic pot. Seeds of Amaranthus retroflexus are seeded thereon. The stem cutting of sugar cane treated with metalaxyl or metalaxyl-M is planted in the soil packed into the pot at a depth of 2 cm. […] Thereafter, the pot for a test is placed in a greenhouse.

For series [10], the system named is sugar cane. Briefly: Phytotoxicity on sugar cane, spray above weed before planting, metalaxyl-treated stem cutting (Example 13). The protocol:
as §1
A soil is packed into a plastic pot, and seeds of Amaranthus retroflexus are seeded thereon. Thereafter, a pot is placed in a greenhouse, and the weed is grown.
A 30 cm to 40 cm stem cutting of sugar cane is placed on a wet soil, and germination is stimulated. The stem cutting from which a bud has grown to about 1 cm is selected, and the length of the stem cutting is adjusted to be 3 cm so that the stem cutting has one node. Metalaxyl or metalaxyl-M is adhered to the stem cutting.
as §4

The subject of series [11] is Amaranthus retroflexus. Briefly: Herbicidal activity, soil surface spray, insecticide-treated stem cutting (Example 6). The following applies: 3 cm stem cutting treated with clothianidin, thiamethoxiam, imidacloprid, dinotefuran, nitenpyram, acetamiprid or thiacloprid, four weeks after treatment. Format: in vivo.
Description: A 30 cm to 40 cm stem cutting of sugar cane is placed on a wet soil, and germination is stimulated. The stem cutting from which a bud has grown to about 1 cm is selected, and the length of the stem cutting is adjusted to be 3 cm so that the stem cutting has one node. Clothianidin, thiamethoxiam, imidacloprid, dinotefuran, nitenpyram, acetamiprid or thiacloprid is adhered to the stem cutting. A soil is packed into a plastic pot, and seeds of Amaranthus retroflexus are seeded thereon. The stem cutting of sugar cane treated with clothianidin, thiamethoxiam, imidacloprid, dinotefuran, nitenpyram, acetamiprid or thiacloprid is planted in the soil packed into the pot at a depth of 2 cm. […] Thereafter, the pot for a test is placed in a greenhouse.
Where [12] appears, read: Example 9, sprayed above weed, 3 cm stem cutting treated with kresoxim-methyl, azoxystrobin or another listed strobilurin fungicide planted one week after treatment, four weeks after treatment.
Where [13] appears, read: Example 5, sprayed above weed three weeks after seeding, 3 cm stem cutting planted one week after treatment, four weeks after treatment.
The mark [14] stands for this setting: Example 8, 3 cm stem cutting treated with kresoxim-methyl, azoxystrobin or another listed strobilurin fungicide, soil surface spray, four weeks after treatment.
[15] abbreviates: Example 10, 3 cm stem cutting treated with azaconazole, bitertanol or another listed azole-type fungicide, soil surface spray, four weeks after treatment.
[16] abbreviates: Example 12, 3 cm stem cutting treated with metalaxyl or metalaxyl-M, soil surface spray, four weeks after treatment.
Where [17] appears, read: Example 13, sprayed above weed, 3 cm stem cutting treated with metalaxyl or metalaxyl-M planted one week after treatment, four weeks after treatment.

The structures appear in SMILES notation.

For `C#CCN1C(=O)COc2cc(F)c(N3C(=O)C4=C(CCCC4)C3=O)cc21` [Flumioxazin, flumioxazin], the “herbicidal activity against Amaranthus retroflexus” value (“herbicidal activity” below) was “the controlling effect on a weed can be confirmed” in the series on Amaranthus retroflexus [1]; “the controlling effect on a weed can be confirmed” with Amaranthus retroflexus [4]; “the control effect on a weed can be confirmed” with Amaranthus retroflexus [5]; “the controlling effect on a weed can be confirmed” with Amaranthus retroflexus [6]; “the controlling effect on a weed can be confirmed” in the series on Amaranthus retroflexus [11]. In addition, the phytotoxicity entry in the series on sugar cane [2] (setting [12]) is recorded as “significant phytotoxicity on sugar cane is not observed”; in the series on sugar cane [3] (setting [13]) it was “significant phytotoxicity on sugar cane is not found”; in the series with sugar cane [7] (setting [14]), “significant phytotoxicity on sugar cane is not observed”; in the series on sugar cane [8] (setting [15]), “significant phytotoxicity on sugar cane is not observed”; in the series on sugar cane [9] (setting [16]) it was “significant phytotoxicity on sugar cane is not observed”; in the series with sugar cane [10] (setting [17]) it was “significant phytotoxicity on sugar cane is not observed”.
On to `CC(C)N(C)S(=O)(=O)NC(=O)c1cc(-n2c(=O)cc(C(F)(F)F)n(C)c2=O)c(F)cc1Cl` [Saflufenacil, saflufenacil], for which the “herbicidal activity” value with Amaranthus retroflexus [1] was “the controlling effect on a weed can be confirmed”; with Amaranthus retroflexus [4], “the controlling effect on a weed can be confirmed”; in the series on Amaranthus retroflexus [5] it was “the control effect on a weed can be confirmed”; with Amaranthus retroflexus [6], “the controlling effect on a weed can be confirmed”; in the series on Amaranthus retroflexus [11] it was “the controlling effect on a weed can be confirmed”. Also, the phytotoxicity result with sugar cane [2] (setting [12]) is reported as “significant phytotoxicity on sugar cane is not observed”; with sugar cane [3] (setting [13]), “significant phytotoxicity on sugar cane is not found”; with sugar cane [7] (setting [14]), “significant phytotoxicity on sugar cane is not observed”; in the series with sugar cane [8] (setting [15]) it was “significant phytotoxicity on sugar cane is not observed”; in the series on sugar cane [9] (setting [16]) it was “significant phytotoxicity on sugar cane is not observed”; in the series with sugar cane [10] (setting [17]), “significant phytotoxicity on sugar cane is not observed”.
As to `C#CCN1C(=O)COc2cc(F)c(-n3c(=O)n(C)c(=S)n(C)c3=O)cc21` [compound of the formula (I)], the “herbicidal activity” value is “the controlling effect on a weed can be confirmed” in the series on Amaranthus retroflexus [1]; “the controlling effect on a weed can be confirmed” in the series on Amaranthus retroflexus [4]; “the control effect on a weed can be confirmed” in the series with Amaranthus retroflexus [5]; “the controlling effect on a weed can be confirmed” with Amaranthus retroflexus [6]; “the controlling effect on a weed can be confirmed” with Amaranthus retroflexus [11]. Further, the phytotoxicity entry with sugar cane [2] (setting [12]) was “significant phytotoxicity on sugar cane is not observed”; in the series on sugar cane [3] (in vivo) it was “significant phytotoxicity on sugar cane is not found”; with sugar cane [7] (setting [14]), “significant phytotoxicity on sugar cane is not observed”; in the series on sugar cane [8] (in vivo), “significant phytotoxicity on sugar cane is not observed”; in the series with sugar cane [9] (in vivo), “significant phytotoxicity on sugar cane is not observed”; in the series on sugar cane [10] (in vivo) it was “significant phytotoxicity on sugar cane is not observed”.
As to `CC(C)Oc1cc(-n2nc(C(C)(C)C)oc2=O)c(Cl)cc1Cl` [oxadiazon], the “herbicidal activity” value is listed as “the controlling effect on a weed can be confirmed” in the series on Amaranthus retroflexus [1]; “the controlling effect on a weed can be confirmed” in the series with Amaranthus retroflexus [4]; “the control effect on a weed can be confirmed” in the series on Amaranthus retroflexus [5]; “the controlling effect on a weed can be confirmed” in the series with Amaranthus retroflexus [6]; “the controlling effect on a weed can be confirmed” in the series with Amaranthus retroflexus [11]. Further, the phytotoxicity entry is “significant phytotoxicity on sugar cane is not observed” in the series on sugar cane [2] (in vivo); “significant phytotoxicity on sugar cane is not found” in the series with sugar cane [3] (in vivo); “significant phytotoxicity on sugar cane is not observed” with sugar cane [7] (in vivo); “significant phytotoxicity on sugar cane is not observed” in the series with sugar cane [8] (in vivo); “significant phytotoxicity on sugar cane is not observed” with sugar cane [9] (in vivo); “significant phytotoxicity on sugar cane is not observed” in the series with sugar cane [10] (in vivo).
For `CCOc1cc(Oc2ccc(C(F)(F)F)cc2Cl)ccc1[N+](=O)[O-]` [oxyfluorfen], the “herbicidal activity” value in the series with Amaranthus retroflexus [1] is reported as “the controlling effect on a weed can be confirmed”; in the series on Amaranthus retroflexus [4], “the controlling effect on a weed can be confirmed”; in the series with Amaranthus retroflexus [5], “the control effect on a weed can be confirmed”; with Amaranthus retroflexus [6], “the controlling effect on a weed can be confirmed”; in the series on Amaranthus retroflexus [11], “the controlling effect on a weed can be confirmed”. Moreover, the phytotoxicity result was “significant phytotoxicity on sugar cane is not observed” in the series with sugar cane [2] (setting [12]); “significant phytotoxicity on sugar cane is not found” in the series on sugar cane [3] (setting [13]); “significant phytotoxicity on sugar cane is not observed” with sugar cane [7] (setting [14]); “significant phytotoxicity on sugar cane is not observed” in the series with sugar cane [8] (setting [15]); “significant phytotoxicity on sugar cane is not observed” with sugar cane [9] (setting [16]); “significant phytotoxicity on sugar cane is not observed” in the series with sugar cane [10] (setting [17]).

The record behind these values is patent US20140329682A1, “METHOD OF CONTROLLING WEED IN A SUGAR CANE FIELD” (SUMITOMO CHEMICAL COMPANY, LIMITED, priority 2011, published 2014).
